Data taken from patent US10316008B2, “KCNQ potassium channel agonist, and preparation method therefor and use thereof” (SHANGHAI INSTITUTE OF MATERIA MEDICA, CHINESE ACADEMY OF …, priority 2014, dated 2019).
Several values for one entry are separate records, joined by “and”; a condition that tells them apart may be missing. Equal values may be shown once. Where a name gives a salt, the structure may show the parent alone. Read-outs that look alike come from different tables or passages of the source.

Experiments:
[1] = test system: KCNQ potassium channel; assay: Whole-cell voltage-clamp recording in CHO-K1 cells transfected with KCNQ plasmid; type: cell-based; conditions: for I/I0: current enhancement factor, −10 mV testing voltage, compound concentration 10 μM, >1 activating, <1 inhibiting; for ΔV1/2: shift of V1/2, negative sign = left-ward shift of current activation curve, compound 10 μM, CHO-K1 cells
Procedure: The culture medium for Chinese hamster oocytes (CHO-K1) (Culture Collection of Chinese Academy of Sciences): 50/50 DMEM/F-12 (Cellgro, Manassas, Va.), added with 10% fetal bovine serum (FBS) (Gibco, Australia) and 2 mM L-glutamic acid (Invitrogen). […] Lipofectamine 2000™ agent (Invitrogen) was used for Transfection according to the protocol thereof. GFP (green fluorescent protein) was cotransfected to be used as a indication of successful converting into KCNQ plasmid.
Whole-cell voltage-clamp recording was performed on an Axopatch-200B amplifier (Molecular Devices, Sunnyvale, Calif.) at room temperature. The electrode was made by drawing borosilicate glass capillary (World Precision Instruments, Sarasota, Fla.). The electric resistance of the electrode filled with an intracellular fluid is 3 to 5 MΩ. […] During the recording, an extracellular fluid was continuously perfused by using a BPS perfusion system (ALA Scientific Instruments, Westburg, N.Y.). The composition of the extracellular fluid (1 L) was as follows: 140 mM NaCl(Sigma), 5 mM KCl(Sigma), 2 mM CaCl2(Sigma), 1.5 mM MgCl2(Sigma), 10 mM HEPES(Sigma) and 10 mM glucose(Sigma) (pH was adjusted to 7.4 with NaOH). […] Series resistors compensate 60 to 80%. Up to date, multivoltage scheme was generally adopted, wherein the clamp voltage was set at −80 mV, stimulating voltage was a gradient voltage from −90 mV to 60 mV with interval of 10 mV, and the stimulating time for each voltage was 2000 ms.
V1/2 is the voltage at which 50% of cells were activated, ΔV1/2 is the shift amount of V1/2, negative sign (−) represents a left-ward shift of the current activation curve. I/I0 represents the current enhancement factor, wherein, I0 is the maximum induced current produced under stimulation of −10 mV testing voltage after administrating cells with blank extracellular fluid, I is the maximum induced current produced under stimulation of −10 mV testing voltage after administrating the drug (the compound concentration was 10 μM), I/I0>1 represents activating activity, and I/I0<1 represents inhibiting activity. N is the number of tested cells. NT represents non-tested.

[2] = Rotarod experiment, motor coordination ability (acute neurotoxicity); type: in vivo, KM mice; conditions: both sexes, KM, mouse, in vivo; mice, oral perfusion, Rotarod 30 mins after administration; read-out: TD50 (50% acute neurotoxicity dose)
Procedure: YLS-4C Rotarod system was used in the experiment, wherein the diameter of the rod was 3 cm and the rotate speed was set at 6 rpm. Healthy KM mice (SPF level) were selected, wherein male and female were equal, the body weight was 18 to 22 g. One day before experiment, the mice were place on the rotarod for training and screening. The tail tip of mice was held to make them creep on the rotarod during the training. […] The mice that jumped on the rotarod or griped the rotarod were weed out. In addition, three time periods were set with 1 min for each. […] The qualified mice were randomly caged according to the gender, and allowed to eat and drink freely.
On the day of the experiment, each compound to be tested was freshly formulated by the same method as described in MES experiment. If the compound was not sufficiently suspended, the suspension was further mixed by ultrasonication for 20 min so as to make the compound sufficiently suspended. […] 30 mins after administration, Rotarod experiment was performed and the experiment parameters were the same as the above. The number of mice that fell off from the rorarod was recorded, and the influence of each compound on motor coordination ability of mice was analyzed. The curve for dose of each compound verse motor deficit (percentage) of mice for each compound was obtained according to the analysis of Graphpad Prism 5 software and was shown in FIG. 4.

[3] = Pharmacokinetics and distribution in brain tissue in rats; type: in vivo, Sprague Dawley rats; conditions: SD rats; for Vd: read-out: VdSS
Procedure: After K43 was administered to Sprague Dawley rats via intravenous injection or oral administration, blood sample and brain tissue were collected at different time points. the concentration of K43 in plasma and brain of rats after administration of the compounds was analyzed by LC-MS/MS and used to calculate the pharmacokinetic parameters, evaluating the oral bioavailability and distribution in brain tissue of K43 in rats.
24 SD rats, which were provided by SHANGHAI SLAC LABORATORY ANIMAL CO. LTD., were used to perform the experiments according to the following table.
About 0.15 mL of blood was collected through orbit per animal every time, and EDTAK2 was used for anticoagulation. For IV group, the time points for collection were before administration (0 hr), and 5 min, 15 min, 30 min, 1 h, 2 h, 4 h, 6 h, 8 h and 24 h after administration; and for PO group, the time points for collection were before administration (0 hr), 15 min, 30 min, 1 h, 2 h, 4 h, 6 h, 8 h and 24 h after administration. The time points for collecting brain tissue were 0.25, 0.5, 1, 2, 4, 6 and 24 h. The collected blood samples were placed on icen, and plasma was centrifuged within 1 h (centrifugal condition: 12000 rpm, 2 min, 4° C.). The collected plasma was cryopreserved in a −20° C. refrigerator before analysis.
Pharmacokinetic parameters after administration were calculated according to the obtained data of plasma concentration using the non-compartmental model of WinNonlin V6.3.

[4] = IV 0.500 mg/kg, plasma, individual animals IV-1 to IV-3, 0.5 mg/kg
[5] = PO 5.00 mg/kg, plasma, individual animals PO-4 to PO-6, 5 mg/kg
[6] = Sprague-Dawley, rat, plasma, iv, 0.5 mg/kg, IV 0.500 mg/kg, individual animals IV-1 to IV-3
[7] = Sprague-Dawley, rat, plasma, iv, 0.5 mg/kg, IV 0.500 mg/kg, mean

For `C#CCN(Cc1ccc(F)cc1)c1cc(C)c(NC(=O)OC)c(C)c1.Cl` [K43•HCl, methyl 4-(N-parafluorobenzyl-N-propargyl-amino)-2,6-dimethylphenylaminoformate hydrochloride], the I/I0 [1] was 4.75 ± 1.29, the ΔV1/2 [1] was −38.52 ± 1.67 mV and the TD50 at 30 min [2] was 152 mg/kg.

`C#CCN(Cc1ccc(F)cc1)c1ccc(NC(=O)OC)c(C)c1` [K41•HCl] gave an I/I0 [1] of 4.8 ± 0.73, a ΔV1/2 [1] of −23.28 ± 1.37 mV and a TD50 at 30 min [2] of 103 mg/kg.

For `C#CCN(Cc1ccc(F)cc1)c1cc(C)c(NC(=O)OC)c(C)c1` [Compound K43, methyl 4-(N-parafluorobenzyl-N-propargyl-amino)-2,6-dimethylphenylaminoformate], the AUC0-t [3, 4] was 232 ng·h/mL and 239 ng·h/mL, the AUC(0-inf) [3, 4] was 236 ng·h/mL and 242 ng·h/mL and the AUMC0-inf [3, 4] was 304 h · h · ng · mL^−1 and 295 h · h · ng · mL^−1 and 293 h · h · ng · mL^−1. The AUMC0-t [3, 4] was 287 h · h · ng · mL^−1 and 258 h · h · ng · mL^−1 and 270 h · h · ng · mL^−1, the CL [3, 4] was 35.3 mL/min/kg and 34.5 mL/min/kg and the Kcl [3, 4] was 0.552 h⁻¹ and 0.427 h⁻¹ and 0.516 h⁻¹. The MRTIV [3, 4] was 1.38 h and 1.25 h and 1.21 h, the VdSS [3, 4] was 2.65 L/kg and 2.51 L/kg and the t1/2 [3, 4] was 1.62 h and 1.34 h. For the same molecule, the AUMC0-inf ([3]; IV 0.500 mg/kg, plasma, mean) was 297 h · h · ng · mL^−1, the AUMC0-t ([3]; IV 0.500 mg/kg, plasma, mean) was 271 h · h · ng · mL^−1 and the Kcl ([3]; IV 0.500 mg/kg, plasma, mean) was 0.498 h⁻¹. For the same molecule, the MRTIV ([3]; IV 0.500 mg/kg, plasma, mean) was 1.28 h, the AUC(0-inf) ([3]; PO 5.00 mg/kg, brain tissue) was 4314 ng·h/g and the AUMC0-inf ([3]; PO 5.00 mg/kg, brain tissue) was 85535 h · h · ng · g^−1. The AUMC0-t ([3]; PO 5.00 mg/kg, brain tissue) was 25306 h · h · ng · g^−1, the Kel ([3]; PO 5.00 mg/kg, brain tissue) was 0.0542 h⁻¹ and the MRTPO ([3]; PO 5.00 mg/kg, brain tissue) was 19.8 h. For the same molecule, the AUC0-t ([3]; PO 5.00 mg/kg, brain tissue (AUC0→24 hr)) was 2895 ng·h/g, the F ([3]; PO 5.00 mg/kg, individual animals PO-4 to PO-6, 5 mg/kg) was 20.3% and 59.9% and 16.5% and the AUC0-t [3, 5] was 467 ng·h/mL and 1379 ng·h/mL and 379 ng·h/mL. For the same molecule, the AUC(0-inf) [3, 5] was 471 ng·h/mL and 1605 ng·h/mL and 407 ng·h/mL, the AUMC0-inf [3, 5] was 2497 h · h · ng · mL^−1 and 18103 h · h · ng · mL^−1 and 1256 h · h · ng · mL^−1 and the AUMC0-t [3, 5] was 2360 h · h · ng · mL^−1 and 10030 h · h · ng · mL^−1 and 957 h · h · ng · mL^−1. The Cmax [3, 5] was 62.7 ng/mL and 138 ng/mL and 107 ng/mL, the Kcl [3, 5] was 0.186 h⁻¹ and 0.0857 h⁻¹ and 0.371 h⁻¹ and the MRTPO [3, 5] was 5.30 h and 11.3 h and 3.09 h. For the same molecule, the Tmax [3, 5] was 4.00 h and 1.00 h, the t1/2 [3, 5] was 3.74 h and 8.09 h and 1.87 h and the AUMC0-inf ([3]; PO 5.00 mg/kg, plasma, mean) was 7285 h · h · ng · mL^−1. For the same molecule, the AUMC0-t ([3]; PO 5.00 mg/kg, plasma, mean) was 4449 h · h · ng · mL^−1, the Kcl ([3]; PO 5.00 mg/kg, plasma, mean) was 0.214 h⁻¹ and the MRTPO ([3]; PO 5.00 mg/kg, plasma, mean) was 6.55 h. For the same molecule, the half-life ([3]; Sprague-Dawley, rat, brain, po, 5 mg/kg, PO 5.00 mg/kg, brain tissue) was 12.8 h, the Cmax ([3]; Sprague-Dawley, rat, brain, po, 5 mg/kg, PO 5.00 mg/kg, brain tissue, read-out: Cmax) was 366 ng/g and the Tmax ([3]; Sprague-Dawley, rat, brain, po, 5 mg/kg, PO 5.00 mg/kg, brain tissue, read-out: tmax) was 2 h. The clearance [3, 6] was 37.8 mL/min/kg, the half-life [3, 6] was 1.26 h and the clearance [3, 7] was 35.8 ± 1.7 mL/min/kg. It also gave a half-life [3, 7] of 1.41 ± 0.191 h, an AUC(0-inf) ([3]; Sprague-Dawley, rat, plasma, iv, 0.5 mg/kg, IV 0.500 mg/kg, plasma, individual animals IV-1 to IV-3, read-out: AUC0-inf) of 221 ng·h/mL and an AUC0-t ([3]; Sprague-Dawley, rat, plasma, iv, 0.5 mg/kg, IV 0.500 mg/kg, plasma, individual animals IV-1 to IV-3, read-out: AUC0-t) of 219 ng·h/mL. For the same molecule, the Vd ([3]; Sprague-Dawley, rat, plasma, iv, 0.5 mg/kg, IV 0.500 mg/kg, plasma, individual animals IV-1 to IV-3) was 3.13 L/kg, the AUC(0-inf) ([3]; Sprague-Dawley, rat, plasma, iv, 0.5 mg/kg, IV 0.500 mg/kg, plasma, mean, read-out: AUC0-inf) was 233 ng·h/mL and the AUC0-t ([3]; Sprague-Dawley, rat, plasma, iv, 0.5 mg/kg, IV 0.500 mg/kg, plasma, mean, read-out: AUC0-t) was 230 ng·h/mL. For the same molecule, the Vd ([3]; Sprague-Dawley, rat, plasma, iv, 0.5 mg/kg, IV 0.500 mg/kg, plasma, mean) was 2.76 ± 0.324 L/kg, the half-life ([3]; Sprague-Dawley, rat, plasma, po, 5 mg/kg, PO 5.00 mg/kg, mean) was 4.56 h and the AUC0-t ([3]; Sprague-Dawley, rat, plasma, po, 5 mg/kg, PO 5.00 mg/kg, plasma, mean (AUC0→24 hr), read-out: AUC0-t) was 742 ± 554 ng·h/mL. For the same molecule, the AUC(0-inf) ([3]; Sprague-Dawley, rat, plasma, po, 5 mg/kg, PO 5.00 mg/kg, plasma, mean, read-out: AUC0-inf) was 828 ng·h/mL, the Cmax ([3]; Sprague-Dawley, rat, plasma, po, 5 mg/kg, PO 5.00 mg/kg, plasma, mean, read-out: Cmax) was 103 ± 37.8 ng/mL and the Tmax ([3]; Sprague-Dawley, rat, plasma, po, 5 mg/kg, PO 5.00 mg/kg, plasma, mean, read-out: tmax) was 2.33 ± 1.53 h. The bioavailability ([3]; Sprague-Dawley, rat, plasma, PO 5.00 mg/kg, mean, read-out: F (oral bioavailability)) was 32.2 ± 24.1%.
